Measured values published in patent US20250042876A1, “HERBICIDAL PYRAZOLE PYRIMIDINE COMPOUNDS” (SYNGENTA CROP PROTECTION AG, priority 2021, published 2025).

Each compound was assayed on Amaranthus palmeri (AMAPA) (assay: Post-emergence herbicidal test, glasshouse). Details: 250 g/ha, evaluated after 13 days.
Format: in vivo
With `Cc1cnc(Cc2cc(C(F)(F)F)nn2-c2ccc(C(F)(F)F)cc2)nc1` [Compound 1.011] the “AMAPA percentage damage caused to the plant (five-point scale)” value (from here on “AMAPA percentage damage caused”) was 5 (5=81-100%). For `N#Cc1cnc(Cc2cc(C(F)(F)F)nn2-c2ccc(C(F)(F)F)cc2)nc1` [Compound 1.012], the “AMAPA percentage damage caused” value was 5 (5=81-100%). For `FC(F)c1cc(Cc2ncc(Cl)cn2)n(-c2ccc(C(F)(F)F)cc2)n1` [Compound 1.016], the “AMAPA percentage damage caused” value was 5 (5=81-100%). For `FC(F)c1cc(Cc2ncc(Cl)cn2)n(-c2ccc(Cl)nc2)n1` [Compound 1.035], the “AMAPA percentage damage caused” value was 4 (4=61-80%).

These compounds were tested on Amaranthus retoflexus (AMARE) (assay: Post-emergence herbicidal test, glasshouse). Details: 250 g/ha, evaluated after 13 days.
Format: in vivo
In the case of `Cc1cnc(Cc2cc(C(F)(F)F)nn2-c2ccc(C(F)(F)F)cc2)nc1` [Compound 1.011], the “AMARE percentage damage caused to the plant (five-point scale)” value (from here on “AMARE percentage damage caused”) is reported as 5 (5=81-100%). In the case of `N#Cc1cnc(Cc2cc(C(F)(F)F)nn2-c2ccc(C(F)(F)F)cc2)nc1` [Compound 1.012], the “AMARE percentage damage caused” value is reported as 5 (5=81-100%). With `FC(F)c1cc(Cc2ncc(Cl)cn2)n(-c2ccc(C(F)(F)F)cc2)n1` [Compound 1.016] the “AMARE percentage damage caused” value was 5 (5=81-100%). `FC(F)c1cc(Cc2ncc(Cl)cn2)n(-c2ccc(Cl)nc2)n1` [Compound 1.035] was tested, and the “AMARE percentage damage caused” value was 4 (4=61-80%).

What follows are compounds tested on Echinochloa crus-galli (ECHCG) (assay: Post-emergence herbicidal test, glasshouse). Details: 250 g/ha, evaluated after 13 days.
Format: in vivo
For `Cc1cnc(Cc2cc(C(F)(F)F)nn2-c2ccc(C(F)(F)F)cc2)nc1` [Compound 1.011], the “ECHCG percentage damage caused to the plant (five-point scale)” value (from here on “ECHCG percentage damage caused”) was 5 (5=81-100%). With `N#Cc1cnc(Cc2cc(C(F)(F)F)nn2-c2ccc(C(F)(F)F)cc2)nc1` [Compound 1.012] the “ECHCG percentage damage caused” value was 4 (4=61-80%). With `FC(F)c1cc(Cc2ncc(Cl)cn2)n(-c2ccc(C(F)(F)F)cc2)n1` [Compound 1.016] the “ECHCG percentage damage caused” value was 5 (5=81-100%). With `FC(F)c1cc(Cc2ncc(Cl)cn2)n(-c2ccc(Cl)nc2)n1` [Compound 1.035] the “ECHCG percentage damage caused” value was 3 (3=41-60%).

The compounds below were run on Ipomoea hederacea (IPOHE) (assay: Post-emergence herbicidal test, glasshouse). Details: 250 g/ha, evaluated after 13 days.
Format: in vivo
For `Cc1cnc(Cc2cc(C(F)(F)F)nn2-c2ccc(C(F)(F)F)cc2)nc1` [Compound 1.011], the “IPOHE percentage damage caused to the plant (five-point scale)” value (from here on “IPOHE percentage damage caused”) was 3 (3=41-60%). For `N#Cc1cnc(Cc2cc(C(F)(F)F)nn2-c2ccc(C(F)(F)F)cc2)nc1` [Compound 1.012], the “IPOHE percentage damage caused” value was 4 (4=61-80%). With `FC(F)c1cc(Cc2ncc(Cl)cn2)n(-c2ccc(C(F)(F)F)cc2)n1` [Compound 1.016] the “IPOHE percentage damage caused” value was 3 (3=41-60%). For `FC(F)c1cc(Cc2ncc(Cl)cn2)n(-c2ccc(Cl)nc2)n1` [Compound 1.035], the “IPOHE percentage damage caused” value was 4 (4=61-80%).

The compounds below were run on Setaria faberi (SETFA) (assay: Post-emergence herbicidal test, glasshouse). Details: 250 g/ha, evaluated after 13 days.
Format: in vivo
With `Cc1cnc(Cc2cc(C(F)(F)F)nn2-c2ccc(C(F)(F)F)cc2)nc1` [Compound 1.011] the “SETFA percentage damage caused to the plant (five-point scale)” value (from here on “SETFA percentage damage caused”) was 5 (5=81-100%). `N#Cc1cnc(Cc2cc(C(F)(F)F)nn2-c2ccc(C(F)(F)F)cc2)nc1` [Compound 1.012] was tested, and the “SETFA percentage damage caused” value was 5 (5=81-100%). For `FC(F)c1cc(Cc2ncc(Cl)cn2)n(-c2ccc(C(F)(F)F)cc2)n1` [Compound 1.016], the “SETFA percentage damage caused” value was 5 (5=81-100%). In the case of `FC(F)c1cc(Cc2ncc(Cl)cn2)n(-c2ccc(Cl)nc2)n1` [Compound 1.035], the “SETFA percentage damage caused” value is reported as 3 (3=41-60%).

These compounds were tested on Amaranthus palmeri (AMAPA) (assay: Pre-emergence herbicidal test, glasshouse). Details: 250 g/ha, evaluated after 13 days.
Format: in vivo
For `Cc1cnc(Cc2cc(C(F)(F)F)nn2-c2ccc(C(F)(F)F)cc2)nc1` [Compound 1.011], the “AMAPA percentage damage caused” value was 5 (5=81-100%). `N#Cc1cnc(Cc2cc(C(F)(F)F)nn2-c2ccc(C(F)(F)F)cc2)nc1` [Compound 1.012] was tested, and the “AMAPA percentage damage caused” value was 5 (5=81-100%). With `FC(F)c1cc(Cc2ncc(Cl)cn2)n(-c2ccc(C(F)(F)F)cc2)n1` [Compound 1.016] the “AMAPA percentage damage caused” value was 5 (5=81-100%). In the case of `FC(F)c1cc(Cc2ncc(Cl)cn2)n(-c2ccc(Cl)nc2)n1` [Compound 1.035], the “AMAPA percentage damage caused” value is reported as 5 (5=81-100%).

Each compound was assayed on Amaranthus retoflexus (AMARE) (assay: Pre-emergence herbicidal test, glasshouse). Details: 250 g/ha, evaluated after 13 days.
Format: in vivo
For `Cc1cnc(Cc2cc(C(F)(F)F)nn2-c2ccc(C(F)(F)F)cc2)nc1` [Compound 1.011], the “AMARE percentage damage caused” value was 5 (5=81-100%). In the case of `N#Cc1cnc(Cc2cc(C(F)(F)F)nn2-c2ccc(C(F)(F)F)cc2)nc1` [Compound 1.012], the “AMARE percentage damage caused” value is reported as 5 (5=81-100%). In the case of `FC(F)c1cc(Cc2ncc(Cl)cn2)n(-c2ccc(C(F)(F)F)cc2)n1` [Compound 1.016], the “AMARE percentage damage caused” value is reported as 5 (5=81-100%). In the case of `FC(F)c1cc(Cc2ncc(Cl)cn2)n(-c2ccc(Cl)nc2)n1` [Compound 1.035], the “AMARE percentage damage caused” value is reported as 5 (5=81-100%).

These compounds were tested on Echinochloa crus-galli (ECHCG) (assay: Pre-emergence herbicidal test, glasshouse). Details: 250 g/ha, evaluated after 13 days.
Format: in vivo
For `Cc1cnc(Cc2cc(C(F)(F)F)nn2-c2ccc(C(F)(F)F)cc2)nc1` [Compound 1.011], the “ECHCG percentage damage caused” value was 5 (5=81-100%). `N#Cc1cnc(Cc2cc(C(F)(F)F)nn2-c2ccc(C(F)(F)F)cc2)nc1` [Compound 1.012] was tested, and the “ECHCG percentage damage caused” value was 5 (5=81-100%). For `FC(F)c1cc(Cc2ncc(Cl)cn2)n(-c2ccc(C(F)(F)F)cc2)n1` [Compound 1.016], the “ECHCG percentage damage caused” value was 5 (5=81-100%). In the case of `FC(F)c1cc(Cc2ncc(Cl)cn2)n(-c2ccc(Cl)nc2)n1` [Compound 1.035], the “ECHCG percentage damage caused” value is reported as 4 (4=61-80%).

What follows are compounds tested on Ipomoea hederacea (IPOHE) (assay: Pre-emergence herbicidal test, glasshouse). Details: 250 g/ha, evaluated after 13 days.
Format: in vivo
With `Cc1cnc(Cc2cc(C(F)(F)F)nn2-c2ccc(C(F)(F)F)cc2)nc1` [Compound 1.011] the “IPOHE percentage damage caused” value was 5 (5=81-100%). `N#Cc1cnc(Cc2cc(C(F)(F)F)nn2-c2ccc(C(F)(F)F)cc2)nc1` [Compound 1.012] was tested, and the “IPOHE percentage damage caused” value was 5 (5=81-100%). For `FC(F)c1cc(Cc2ncc(Cl)cn2)n(-c2ccc(C(F)(F)F)cc2)n1` [Compound 1.016], the “IPOHE percentage damage caused” value was 5 (5=81-100%). For `FC(F)c1cc(Cc2ncc(Cl)cn2)n(-c2ccc(Cl)nc2)n1` [Compound 1.035], the “IPOHE percentage damage caused” value was 4 (4=61-80%).

Each compound was assayed on Setaria faberi (SETFA) (assay: Pre-emergence herbicidal test, glasshouse). Details: 250 g/ha, evaluated after 13 days.
Format: in vivo
`Cc1cnc(Cc2cc(C(F)(F)F)nn2-c2ccc(C(F)(F)F)cc2)nc1` [Compound 1.011] was tested, and the “SETFA percentage damage caused” value was 5 (5=81-100%). For `N#Cc1cnc(Cc2cc(C(F)(F)F)nn2-c2ccc(C(F)(F)F)cc2)nc1` [Compound 1.012], the “SETFA percentage damage caused” value was 5 (5=81-100%). For `FC(F)c1cc(Cc2ncc(Cl)cn2)n(-c2ccc(C(F)(F)F)cc2)n1` [Compound 1.016], the “SETFA percentage damage caused” value was 5 (5=81-100%). In the case of `FC(F)c1cc(Cc2ncc(Cl)cn2)n(-c2ccc(Cl)nc2)n1` [Compound 1.035], the “SETFA percentage damage caused” value is reported as 5 (5=81-100%).
